Legend:
[1] = molecular target: T1, α-glucosidase from Saccharomyces cerevisiae (Saccharomyces cerevisiae, UniProt P53341); assay: biochemical; type: biochemical; settings: for IC50: α-glucosidase 0.1 U/mL, PNPG 0.25 mM, pH 6.8, 37 °C, read-out: α-Glucosidase inhibitory activity IC50
T1 construct: purchased Sigma-Aldrich
Description: (§1) α-Glucosidase from Saccharomyces cerevisiae (EC 3.2.1.20) was purchased from Sigma-Aldrich. p-Nitrophenyl-α-D-[…] (PNPG) was obtained from Abcam. Other reagents were commercially available.
After the addition of PNPG (0.25 mM), the change in absorbance was measured at 405 nm. […] All experiments were performed four times.

[2] = molecular target: T2, α-glucosidase (Saccharomyces cerevisiae, UniProt P53341); assay: α-glucosidase inhibition kinetics (enzyme kinetics and Lineweaver-Burk substrate kinetics); type: biochemical; settings: for inhibition type (substrate kinetics): Lineweaver-Burk plots; for Ki / Kis / Vmax: inhibition kinetics constant; for reversibility of inhibition (enzyme kinetics): plots of remaining enzyme activity versus enzyme concentration
T2 construct: purchased Sigma-Aldrich
T2 sequence (P53341 whole entry): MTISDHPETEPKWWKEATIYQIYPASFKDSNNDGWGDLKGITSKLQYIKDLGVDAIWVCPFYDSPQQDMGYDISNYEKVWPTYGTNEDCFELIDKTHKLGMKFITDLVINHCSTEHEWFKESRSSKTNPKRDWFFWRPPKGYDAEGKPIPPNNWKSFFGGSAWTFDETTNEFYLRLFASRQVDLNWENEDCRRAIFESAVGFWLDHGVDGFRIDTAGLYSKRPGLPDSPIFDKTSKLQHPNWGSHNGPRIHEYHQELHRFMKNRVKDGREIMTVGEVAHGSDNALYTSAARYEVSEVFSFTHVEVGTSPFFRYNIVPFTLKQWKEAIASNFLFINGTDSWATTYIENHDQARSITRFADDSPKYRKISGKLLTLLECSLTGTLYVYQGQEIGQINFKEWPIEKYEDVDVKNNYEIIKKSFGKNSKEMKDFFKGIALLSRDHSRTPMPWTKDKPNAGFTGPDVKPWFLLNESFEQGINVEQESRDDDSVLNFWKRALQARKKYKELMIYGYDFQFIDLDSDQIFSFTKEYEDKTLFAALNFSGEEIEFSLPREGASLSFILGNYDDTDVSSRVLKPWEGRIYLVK
Source text: Compounds 9, 11, 13, 18, and 19 with different α-glucosidase inhibitory activity were selected as representative compounds to reveal the inhibition mechanism of indolo[1,2-b]isoquinoline derivatives (1–21) on α-glucosidase by the implementation of an inhibition kinetics study. […] For substrate kinetics (Figure 5b,d,f,h,j), the Lineweaver-Burk plots of remaining enzyme activity versus […] treated with compounds 9, 11, 13, 18, and 19 intersected at one point in the second quadrant, respectively. The inhibition kinetics study was an effective method by which to understand the inhibition mechanism of the inhibitor against the target protein. In a substrate kinetics study, different inhibition mechanisms of inhibitors manifested as different intersection positions of Lineweaver-Burk plots. […] Moreover, compounds 9, 11, 13, 18, and 19 bind with both free enzyme and enzyme-substrate complexes to inhibit α-glucosidase. The inhibition kinetics constants of compounds 9, 11, 13, 18, and 19 were obtained and are listed in Table 2, including Ki, Kis, Km, and Vmax values, which might be helpful to understand the inhibition mechanism.
as §1
The kinetics of enzyme inhibition for compounds 9, 11, 13, 18, and 19 were obtained by plotting the enzymatic reaction rate versus enzyme concentration with or without compounds 9, 11, 13, 18, and 19, and the kinetics of substrate inhibition were measured using Lineweaver Burk plots of the enzymatic reaction rate versus substrate concentration with or without compounds 9, 11, 13, 18, and 19 [37, 38, 39, 40].

[3] = molecular target: T2, α-glucosidase; assay: 3D fluorescence spectra of α-glucosidase with compounds; type: binding; settings: α-glucosidase 5 μM
Source text: The 3D fluorescence spectra of α-glucosidase with compounds 9, 11, 13, 18, and 19 was investigated to analyze the effect of compounds on the structure of α-glucosidase, respectively. Two important characteristic peaks appeared in the 3D fluorescence spectra of α-glucosidase (Figure 6a,c,e,g,i), including Peak 1 ([…]), corresponding to the main chain structure of the polypeptide, and Peak 2 ([…]), corresponding to tyrosine and tryptophan residues. […] (Figure 6b,d,f,h,j). Previously, 3D fluorescence spectra have been used to determine protein conformation changes.
as §1
Compounds 9, 11, 13, 18, and 19 were added to α-glucosidase (5 μM) in 100 μL of PBS and incubated for 5 min, then the 3D fluorescence spectra of the mixture were recorded [32]^. The excitation and emission wavelengths were 200–500 nm and the slit width was 2.5 nm. All data were imported into Matlab for processing.

[4] = molecular target: T2, α-glucosidase; assay: CD spectra, secondary structure contents of α-glucosidase; type: binding; settings: for effect on CD band intensity of α-glucosidase: 190~280 nm
Source text: CD spectra were also monitored to study the effect of compounds 9, 11, 13, 18, and 19 on the conformational changes of α-glucosidase. As shown in Figure 7a–e, α-glucosidase presented two negative CD bands in the region of 190~280 nm, which was owed to the electronic transitions of n→π* of α-helical bonds. […] While treatment of compounds 9, 13, 18, and 19 led to an increase of α-helix and a reduction of β-sheet, β-turn, and random coils, respectively (Table 3). CD spectra have been an important method by which to study protein structural changes and secondary structural content. Previous research has shown that the interaction of an inhibitor with α-glucosidase caused the partial folding and loosening of the α-glucosidase structure.
as §1
Compounds 9, 11, 13, 18, and 19 with different concentrations were added into α-glucosidase solution (31 μM) and incubated for 5 min, respectively, then the CD spectra of the mixture were recorded. CDNN was used to analyze the ratio of protein secondary conformations.

[5] = test system: hepatocytes LO2 cells; assay: In vitro cytotoxicity, MTT method; type: cell-based; settings: 24 h, up to a concentration of 32 μM
Description: The in vitro cytotoxicity of compounds 9, 11, 13, 18, and 19 against hepatocytes LO2 cells was detected using the MTT method.
The in vitro cytotoxicity of compound 11 against hepatocytes LO2 cells was assayed using the MTT method. LO2 cells were cultured in DMEM containing 10% FBS, 100 IU/mL penicillin, and 100 IU/mL streptomycin at 37 °C under 5% CO2. An amount of 100 μL of LO2 cells was seeded into a 96-well plate (5000 per well) for 24 h, and was then treated with compounds 9, 11, 13, 18, and 19 for 24 h, respectively. Then, MTT solution was added into each well and incubated for 4 h. An amount of […] of DMSO was used to dissolve the obtained crystallization. Then, this absorbance was determined at 490 nm. Each sample was performed in triplicate.

[6] = molar ratio [α-Glu]:[Comp.] 1:1
[7] = molar ratio [α-Glu]:[Comp.] 1:2
[8] = molar ratio [α-Glu]:[Comp.] 1:3

T1 sequence (P53341 whole entry): as above

Compound O=C1c2cc(F)ccc2-n2c1c(-c1ccccc1)c1ccccc1c2=O [Compound 16] has an IC50 [1] of 10.1 ± 0.36 µM.
With O=C1c2ccccc2-n2c1c(-c1ccc3ccccc3c1)c1ccccc1c2=O [Compound 11] the “anti-α-glucosidase activity, times stronger than acarbose” value [1] was ~ 186 times, the IC50 [1] was 3.44 ± 0.36 µM and the “inhibition type (substrate kinetics)” value [2] was “mixed-type inhibition”. The Ki [2] was 0.46 µM, the Kis [2] was 14.57 µM and the Vmax [2] was 0.06 µM/min/mg. For the same compound, the “reversibility of inhibition (enzyme kinetics)” value [2] was “reversible”, the “effect on fluorescence intensity of Peak 1 and Peak 2 of α-glucosidase” value [3] was “decrease the fluorescence intensity” and the “effect on CD band intensity of α-glucosidase” value [4] was “concentration-dependent increase in the CD band intensity”. The “Rndm Coil” value [4, 6] was 35.60%, the α-Helix [4, 6] was 8.40% and the β-Sheet [4, 6] was 34.30%. The β-Turn [4, 6] was 20.00%, the “Rndm Coil” value [4, 7] was 35.60% and the α-Helix [4, 7] was 8.20%. The β-Sheet [4, 7] was 34.70%, the β-Turn [4, 7] was 20.00% and the “Rndm Coil” value [4, 8] was 35.80%. It also gave a α-Helix [4, 8] of 7.80%, a β-Sheet [4, 8] of 35.20% and a β-Turn [4, 8] of 20.10%. For the same compound, the “effect on cell viability” value [5] was “no significant effect on cell viability”.
COC(=O)c1ccc(-c2c3n(c(=O)c4ccccc24)-c2ccccc2C3=O)cc1 [Compound 12] gave an IC50 [1] of 32.8 ± 0.72 µM.
For O=C1c2ccccc2-n2c1c(-c1ccccc1)c1ccccc1c2=O [Compound 1], the IC50 [1] was 23.46 ± 0.23 µM.
With Cc1ccccc1-c1c2n(c(=O)c3ccccc13)-c1ccccc1C2=O [Compound 4] the IC50 [1] was 22.3 ± 0.63 µM.
In the case of Cc1ccc2c(=O)n3c(c(-c4ccccc4)c2c1)C(=O)c1cc(F)ccc1-3 [Compound 20], the IC50 [1] is reported as 11.9 ± 0.36 µM.
In the case of CCc1ccc(-c2c3n(c(=O)c4ccccc24)-c2ccccc2C3=O)cc1 [Compound 5], the IC50 [1] is reported as 16.1 ± 0.46 µM.
Cc1ccc(-c2c3n(c(=O)c4ccccc24)-c2ccccc2C3=O)cc1 [Compound 2] was tested, and the IC50 [1] was 17.4 ± 0.25 µM.
Compound Cc1cccc(-c2c3n(c(=O)c4ccccc24)-c2ccccc2C3=O)c1 [Compound 3] has an IC50 [1] of 9.25 ± 0.14 µM.
With O=C1c2cc(Cl)ccc2-n2c1c(-c1ccccc1)c1ccccc1c2=O [Compound 13] the IC50 [1] was 6.35 ± 0.25 µM, the “inhibition type (substrate kinetics)” value [2] was “mixed-type inhibition” and the Ki [2] was 3.62 µM. For the same compound, the Kis [2] was 11.65 µM, the Vmax [2] was 0.08 µM/min/mg and the “reversibility of inhibition (enzyme kinetics)” value [2] was “reversible”. The “effect on fluorescence intensity of Peak 1 and Peak 2 of α-glucosidase” value [3] was “decrease the fluorescence intensity”, the “effect on CD band intensity of α-glucosidase” value [4] was “decrease in CD band intensity” and the “Rndm Coil” value [4, 6] was 35.60%. It also gave a α-Helix [4, 6] of 8.80%, a β-Sheet [4, 6] of 40.60% and a β-Turn [4, 6] of 19.30%. For the same compound, the “Rndm Coil” value [4, 7] was 35.40%, the α-Helix [4, 7] was 9.10% and the β-Sheet [4, 7] was 39.60%. For the same compound, the β-Turn [4, 7] was 19.40%, the “Rndm Coil” value [4, 8] was 35.10% and the α-Helix [4, 8] was 11.20%. For the same compound, the β-Sheet [4, 8] was 34.60%, the β-Turn [4, 8] was 19.60% and the “effect on cell viability” value [5] was “no significant effect on cell viability”.

— paper PMC10343752, “Anti-α-Glucosidase, SAR Analysis, and Mechanism Investigation of Indolo[1,2-b]isoquinoline Derivatives” (Molecules, 2023)
